The target of the experiment is T1, Tyrosine-protein kinase receptor TYRO3 (Homo sapiens, UniProt Q06418).
T1 sequence (Q06418 whole entry): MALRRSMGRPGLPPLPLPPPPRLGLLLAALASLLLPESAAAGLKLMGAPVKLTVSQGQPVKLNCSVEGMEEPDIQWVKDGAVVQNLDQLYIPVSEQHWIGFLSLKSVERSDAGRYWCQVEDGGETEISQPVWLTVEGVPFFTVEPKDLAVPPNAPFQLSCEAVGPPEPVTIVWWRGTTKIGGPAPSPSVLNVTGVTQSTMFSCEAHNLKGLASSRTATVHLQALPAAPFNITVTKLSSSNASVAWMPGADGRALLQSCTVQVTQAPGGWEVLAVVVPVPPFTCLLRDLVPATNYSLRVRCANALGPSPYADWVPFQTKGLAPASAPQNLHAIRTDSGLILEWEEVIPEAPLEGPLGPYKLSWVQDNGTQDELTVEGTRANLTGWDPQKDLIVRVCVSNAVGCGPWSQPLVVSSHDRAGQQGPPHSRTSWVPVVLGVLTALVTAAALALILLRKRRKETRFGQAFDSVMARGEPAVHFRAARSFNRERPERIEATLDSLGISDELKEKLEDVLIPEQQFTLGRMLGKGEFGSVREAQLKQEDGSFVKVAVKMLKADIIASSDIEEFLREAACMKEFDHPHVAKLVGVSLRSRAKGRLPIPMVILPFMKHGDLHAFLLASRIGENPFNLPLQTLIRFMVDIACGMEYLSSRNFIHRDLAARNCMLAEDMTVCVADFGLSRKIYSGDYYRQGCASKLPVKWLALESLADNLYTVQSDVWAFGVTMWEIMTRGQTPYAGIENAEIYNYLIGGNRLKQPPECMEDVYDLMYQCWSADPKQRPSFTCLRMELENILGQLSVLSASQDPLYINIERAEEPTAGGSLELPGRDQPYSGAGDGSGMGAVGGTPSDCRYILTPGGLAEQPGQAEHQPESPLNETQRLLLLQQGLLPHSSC
Put plainly: TAM Enzymatic Assay. As for the experimental part:
The kinase assay buffer contained 50 mM HEPES, pH7.5, 10 mM MgCl2, 1 mM EGTA, 0.01% NP-40 and 2 mM DTT. 0.1 ul test compounds dissolved in DMSO were transferred from compound plates to white 384-well assay plates (Greiner […] plates). The final concentration of DMSO was 1.25%. Enzyme solutions of 5.1 nM phosphor-Axl, or 0.0625 nM c-Mer (Carna Biosciences, 08-108), or 0.366 nM Tyro3 (Life Technologies, PR7480A) were prepared in assay buffer. A 1 mM stock solution of peptide substrate Biotin-[…]-amide SEQ ID NO: 1 (Quality Controlled Biochemicals, MA) dissolved in DMSO was diluted to 1 uM in assay buffer containing 2000 uM ATP. 4 ul enzyme solution (or assay buffer for the enzyme blank) was added to the appropriate wells in each plate, and then 4 ul/well substrate solution was added to initiate the reaction. The plate was protected from light and incubated at room temperature for 60 min. […] The plate was incubated for 1 h at room temperature, and HTRF (homogenous time resolved fluorescence) signal was measured on a PHERAstar FS plate reader (BMG labtech). Percentage of inhibition was calculated for each concentration and IC50 value was generated from curve fitting with GraphPad Prism software.

Broadly, the IC50 is the concentration at which inhibition is half-maximal. Read a high IC50 as weaker potency in that assay. In turn, `CC(C)C(=O)N1CCC(c2cc(-c3ccc(NC(=O)c4cn(C(C)C)c(=O)n(-c5ccccn5)c4=O)cc3)c3c(N)ncnn23)CC1` [US11241438, Compound I] registered a half-maximal inhibitory concentration (IC50) of 55 nM.

(Values after BindingDB's records for patent US11241438 (Incyte Corporation, 2022).)
